Values quoted from earlier work, collected in patent US11103580B2, “Methods and systems for treating cell proliferation disorders” (Immunolight, LLC, priority 2007, dated 2021).
Where two headings read alike, the source gives them in different places. Blank lines part the entries; values can stand above or below the compound they belong to.

Key:
leukocytes = settings: administered orally to a patient
[1] = for Length of photosensitization: Table 3, known photosensitizers
tumors = settings: in vivo
rapidly dividing tissue = settings: in vivo
[2] = in excess

Compound: COc1c2occc2cc2ccc(=O)oc12 [Compound 8-MOP, 8-methoxypsoralen]
inducing an apoptosis of leukocytes (leukocytes): effective at inducing an apoptosis of leukocytes
safety (leukocytes): safe

Compound: Oc1cccc(-c2c3nc(c(-c4cccc(O)c4)c4ccc([nH]4)c(-c4cccc(O)c4)c4nc(c(-c5cccc(O)c5)c5ccc2[nH]5)CC4)C=C3)c1 [Foscan, Tetra (m-hydroxyphenyl) chlorin]
Length of photosensitization [1]: 2 weeks
duration of skin photosensitivity ([1]; approximately): approximately 2 weeks

Compound: Cobalt-57-cyanocobalamin
uptake in rapidly dividing tissue (rapidly dividing tissue): increased uptake

Now from value to compound, other results behind:

duration of skin photosensitivity ([1]; clinical use): 24 to 48 h
Compound: CC(=O)[O-].CC(=O)[O-].CCc1c(CC)c2cc3nc(cnc4cc(OCCOCCOCCOC)c(OCCOCCOCCOC)cc4ncc4nc(cc1[n-]2)C(CCCO)=C4C)C(C)=C3CCCO.O.[Lu+3] [Lutetium texaphryin, Motexafin lutetium]
selectivity for tumors compared to normal tissues (tumors): one of the greatest reported selectivities for tumors
Length of photosensitization [1]: 24 to 48 h

uptake in rapidly dividing tissue (rapidly dividing tissue): increased uptake
Compound: C/C1=C2/[N-][C@H]([C@H](CC(N)=O)[C@@]2(C)CCC(=O)NC[C@@H](C)OP(=O)([O-])O[C@H]2[C@@H](O)[C@@H](n3cnc4cc(C)c(C)cc43)O[C@@H]2CO)[C@]2(C)N=C(/C(C)=C3N=C(/C=C4N=C1[C@@H](CCC(N)=O)C\4(C)C)[C@@H](CCC(N)=O)[C@]\3(C)CC(N)=O)[C@@H](CCC(N)=O)[C@]2(C)CC(N)=O.[CH3-].[Co+3] [methylcobalamin]

water solubility: water soluble
excretion [2]: excreted by gloinerular filtration
Compound: Vitamin B12
